How the values were obtained:
[1] = target: Vascular endothelial growth factor receptor 1 (Homo sapiens, UniProt P17948); assay: Inhibition of VEGFR1
[2] = target: Vascular endothelial growth factor receptor 3 (Homo sapiens, UniProt P35916); assay: Inhibition of VEGFR3
[3] = target: Fibroblast growth factor receptor 1 (Homo sapiens, UniProt P11362); assay: Inhibition of FGFR1
[4] = target: Vascular endothelial growth factor receptor 2 (Homo sapiens, UniProt P35968); assay: Inhibition of VEGFR2
[5] = target: Fibroblast growth factor receptor 2 (Homo sapiens, UniProt P21802); assay: Inhibition of FGFR2
[6] = target: Mast/stem cell growth factor receptor Kit (Homo sapiens, UniProt P10721); assay: Inhibition of c-Kit
[7] = target: Platelet-derived growth factor receptor beta (Homo sapiens, UniProt P09619); assay: Inhibition of PDGFRbeta
[8] = Inhibition of FGFRbeta
[9] = system: Mus musculus; assay: Antitumor activity against human tumor xenografted athymic mouse assessed as inhibition of tumor growth; format: functional
[10] = system: HepG2; assay: Antitumor activity against human HepG2 cells xenografted mouse assessed as inhibition of tumor growth at 100 mg/kg qd for 18 days; format: functional; conditions: HepG2, 432 h, read-out: TGI
[11] = system: SW-620; assay: Antitumor activity against human SW620 cells xenografted mouse assessed as inhibition of tumor growth at 100 mg/kg qd for 18 days; format: functional; conditions: SW-620, 432 h, read-out: TGI
[12] = system: HUVEC; assay: Antiangiogenic activity in HUVEC assessed as inhibition of tube formation at 10 uM; format: functional; conditions: Homo sapiens
[13] = species on record: Danio rerio; assay: Antiangiogenic activity in zebrafish embryos assessed as inhibition of intersegmental vessel growth at 2.5 uM; format: functional, Embryo
[14] = target: RAF proto-oncogene serine/threonine-protein kinase (Homo sapiens, UniProt P04049); assay: Inhibition of c-Raf
[15] = target: Tyrosine-protein kinase Lck (Homo sapiens, UniProt P06239); assay: Inhibition of LCK

Vascular endothelial growth factor receptor 3, sequence (P35916 whole entry): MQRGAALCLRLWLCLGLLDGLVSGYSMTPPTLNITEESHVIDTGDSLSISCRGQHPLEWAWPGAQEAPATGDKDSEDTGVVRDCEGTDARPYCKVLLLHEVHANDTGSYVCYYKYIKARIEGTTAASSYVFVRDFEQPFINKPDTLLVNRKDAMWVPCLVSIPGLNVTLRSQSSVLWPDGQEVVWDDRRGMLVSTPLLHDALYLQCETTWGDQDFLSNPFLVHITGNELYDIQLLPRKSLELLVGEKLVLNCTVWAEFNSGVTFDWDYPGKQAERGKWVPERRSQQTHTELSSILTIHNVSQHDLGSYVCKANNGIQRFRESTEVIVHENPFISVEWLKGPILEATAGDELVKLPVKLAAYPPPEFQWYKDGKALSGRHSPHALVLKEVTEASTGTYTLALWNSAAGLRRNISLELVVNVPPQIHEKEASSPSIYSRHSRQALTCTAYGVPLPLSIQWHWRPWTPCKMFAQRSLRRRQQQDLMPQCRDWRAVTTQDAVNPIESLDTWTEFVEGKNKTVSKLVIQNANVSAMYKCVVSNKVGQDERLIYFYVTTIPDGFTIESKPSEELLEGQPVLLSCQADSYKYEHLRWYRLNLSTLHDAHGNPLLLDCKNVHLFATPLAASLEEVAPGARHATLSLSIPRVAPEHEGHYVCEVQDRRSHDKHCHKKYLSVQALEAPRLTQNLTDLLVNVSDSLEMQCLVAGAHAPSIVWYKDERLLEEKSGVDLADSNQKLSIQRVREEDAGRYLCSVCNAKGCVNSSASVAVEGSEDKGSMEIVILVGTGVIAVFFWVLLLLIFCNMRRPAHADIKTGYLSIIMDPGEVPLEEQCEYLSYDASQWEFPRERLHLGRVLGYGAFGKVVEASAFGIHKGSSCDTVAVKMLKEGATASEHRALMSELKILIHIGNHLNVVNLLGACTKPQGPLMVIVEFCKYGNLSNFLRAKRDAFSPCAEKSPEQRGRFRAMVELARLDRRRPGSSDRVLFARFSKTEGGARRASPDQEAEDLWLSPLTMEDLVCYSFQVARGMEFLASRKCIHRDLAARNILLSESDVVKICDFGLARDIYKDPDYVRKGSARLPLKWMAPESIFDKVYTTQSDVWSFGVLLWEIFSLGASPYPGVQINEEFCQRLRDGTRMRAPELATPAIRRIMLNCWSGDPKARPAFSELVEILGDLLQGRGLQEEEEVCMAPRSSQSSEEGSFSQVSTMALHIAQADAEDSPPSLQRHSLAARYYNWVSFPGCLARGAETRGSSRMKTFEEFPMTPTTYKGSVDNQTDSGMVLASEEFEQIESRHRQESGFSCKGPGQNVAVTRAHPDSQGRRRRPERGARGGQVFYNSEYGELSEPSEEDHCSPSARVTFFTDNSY
Vascular endothelial growth factor receptor 2, sequence (P35968 whole entry): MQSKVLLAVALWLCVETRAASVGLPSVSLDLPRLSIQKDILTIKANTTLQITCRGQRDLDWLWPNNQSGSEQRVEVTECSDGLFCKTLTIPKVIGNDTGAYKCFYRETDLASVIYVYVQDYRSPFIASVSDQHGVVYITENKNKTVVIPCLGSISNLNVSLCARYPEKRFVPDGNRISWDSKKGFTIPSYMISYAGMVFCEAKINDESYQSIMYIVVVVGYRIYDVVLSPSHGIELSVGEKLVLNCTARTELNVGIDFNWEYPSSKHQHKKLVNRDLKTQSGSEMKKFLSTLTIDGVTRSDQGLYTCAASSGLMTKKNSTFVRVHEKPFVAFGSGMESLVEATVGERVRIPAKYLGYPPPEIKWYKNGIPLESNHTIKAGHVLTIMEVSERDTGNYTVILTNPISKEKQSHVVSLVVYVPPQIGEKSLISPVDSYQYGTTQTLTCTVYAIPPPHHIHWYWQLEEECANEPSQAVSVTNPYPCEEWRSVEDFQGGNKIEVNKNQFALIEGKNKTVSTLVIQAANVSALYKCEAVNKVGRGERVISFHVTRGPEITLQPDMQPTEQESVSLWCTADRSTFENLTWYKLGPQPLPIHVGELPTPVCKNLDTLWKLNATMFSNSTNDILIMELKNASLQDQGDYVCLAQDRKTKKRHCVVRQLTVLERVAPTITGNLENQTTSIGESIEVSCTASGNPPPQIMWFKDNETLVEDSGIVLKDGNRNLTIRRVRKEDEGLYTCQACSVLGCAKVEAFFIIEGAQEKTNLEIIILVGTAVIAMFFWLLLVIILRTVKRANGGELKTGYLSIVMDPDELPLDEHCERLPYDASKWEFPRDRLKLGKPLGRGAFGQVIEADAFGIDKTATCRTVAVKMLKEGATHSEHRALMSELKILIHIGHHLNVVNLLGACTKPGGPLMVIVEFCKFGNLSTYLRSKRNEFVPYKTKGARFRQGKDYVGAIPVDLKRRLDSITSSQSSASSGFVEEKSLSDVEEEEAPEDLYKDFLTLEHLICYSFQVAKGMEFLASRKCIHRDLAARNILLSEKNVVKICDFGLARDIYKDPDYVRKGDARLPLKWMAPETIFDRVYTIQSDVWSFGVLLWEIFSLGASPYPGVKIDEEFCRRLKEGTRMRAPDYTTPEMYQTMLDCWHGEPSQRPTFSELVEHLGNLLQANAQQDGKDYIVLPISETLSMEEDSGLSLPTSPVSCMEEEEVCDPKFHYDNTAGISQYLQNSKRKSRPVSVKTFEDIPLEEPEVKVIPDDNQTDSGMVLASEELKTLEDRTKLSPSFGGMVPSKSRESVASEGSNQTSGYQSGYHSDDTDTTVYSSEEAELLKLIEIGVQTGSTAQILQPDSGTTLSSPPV
Mast/stem cell growth factor receptor Kit, sequence (P10721 whole entry): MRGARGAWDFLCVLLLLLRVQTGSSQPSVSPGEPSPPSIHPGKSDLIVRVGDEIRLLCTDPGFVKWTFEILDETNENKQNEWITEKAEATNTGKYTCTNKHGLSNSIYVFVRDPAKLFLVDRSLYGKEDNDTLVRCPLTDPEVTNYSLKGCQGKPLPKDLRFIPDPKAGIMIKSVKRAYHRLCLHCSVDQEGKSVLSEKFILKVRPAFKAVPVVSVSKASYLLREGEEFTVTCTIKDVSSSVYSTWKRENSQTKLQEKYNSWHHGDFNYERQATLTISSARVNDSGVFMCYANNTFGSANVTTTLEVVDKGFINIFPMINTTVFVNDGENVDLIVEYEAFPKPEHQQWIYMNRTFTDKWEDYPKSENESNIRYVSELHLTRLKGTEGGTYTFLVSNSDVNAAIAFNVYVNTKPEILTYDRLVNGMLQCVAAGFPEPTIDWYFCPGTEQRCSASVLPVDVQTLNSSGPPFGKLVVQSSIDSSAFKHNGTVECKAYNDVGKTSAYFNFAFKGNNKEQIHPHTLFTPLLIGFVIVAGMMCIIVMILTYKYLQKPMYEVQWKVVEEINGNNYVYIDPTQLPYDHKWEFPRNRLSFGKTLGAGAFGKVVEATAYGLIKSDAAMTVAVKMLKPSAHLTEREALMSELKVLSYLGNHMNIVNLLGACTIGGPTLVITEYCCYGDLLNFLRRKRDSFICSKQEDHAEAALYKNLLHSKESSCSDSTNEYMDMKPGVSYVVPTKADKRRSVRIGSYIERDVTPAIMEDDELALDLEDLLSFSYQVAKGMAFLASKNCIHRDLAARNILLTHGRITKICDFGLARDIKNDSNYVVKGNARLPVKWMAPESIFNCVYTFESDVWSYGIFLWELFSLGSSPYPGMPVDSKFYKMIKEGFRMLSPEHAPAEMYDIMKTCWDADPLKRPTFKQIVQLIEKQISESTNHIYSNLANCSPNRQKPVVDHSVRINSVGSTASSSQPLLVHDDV
Vascular endothelial growth factor receptor 1, sequence (P17948 whole entry): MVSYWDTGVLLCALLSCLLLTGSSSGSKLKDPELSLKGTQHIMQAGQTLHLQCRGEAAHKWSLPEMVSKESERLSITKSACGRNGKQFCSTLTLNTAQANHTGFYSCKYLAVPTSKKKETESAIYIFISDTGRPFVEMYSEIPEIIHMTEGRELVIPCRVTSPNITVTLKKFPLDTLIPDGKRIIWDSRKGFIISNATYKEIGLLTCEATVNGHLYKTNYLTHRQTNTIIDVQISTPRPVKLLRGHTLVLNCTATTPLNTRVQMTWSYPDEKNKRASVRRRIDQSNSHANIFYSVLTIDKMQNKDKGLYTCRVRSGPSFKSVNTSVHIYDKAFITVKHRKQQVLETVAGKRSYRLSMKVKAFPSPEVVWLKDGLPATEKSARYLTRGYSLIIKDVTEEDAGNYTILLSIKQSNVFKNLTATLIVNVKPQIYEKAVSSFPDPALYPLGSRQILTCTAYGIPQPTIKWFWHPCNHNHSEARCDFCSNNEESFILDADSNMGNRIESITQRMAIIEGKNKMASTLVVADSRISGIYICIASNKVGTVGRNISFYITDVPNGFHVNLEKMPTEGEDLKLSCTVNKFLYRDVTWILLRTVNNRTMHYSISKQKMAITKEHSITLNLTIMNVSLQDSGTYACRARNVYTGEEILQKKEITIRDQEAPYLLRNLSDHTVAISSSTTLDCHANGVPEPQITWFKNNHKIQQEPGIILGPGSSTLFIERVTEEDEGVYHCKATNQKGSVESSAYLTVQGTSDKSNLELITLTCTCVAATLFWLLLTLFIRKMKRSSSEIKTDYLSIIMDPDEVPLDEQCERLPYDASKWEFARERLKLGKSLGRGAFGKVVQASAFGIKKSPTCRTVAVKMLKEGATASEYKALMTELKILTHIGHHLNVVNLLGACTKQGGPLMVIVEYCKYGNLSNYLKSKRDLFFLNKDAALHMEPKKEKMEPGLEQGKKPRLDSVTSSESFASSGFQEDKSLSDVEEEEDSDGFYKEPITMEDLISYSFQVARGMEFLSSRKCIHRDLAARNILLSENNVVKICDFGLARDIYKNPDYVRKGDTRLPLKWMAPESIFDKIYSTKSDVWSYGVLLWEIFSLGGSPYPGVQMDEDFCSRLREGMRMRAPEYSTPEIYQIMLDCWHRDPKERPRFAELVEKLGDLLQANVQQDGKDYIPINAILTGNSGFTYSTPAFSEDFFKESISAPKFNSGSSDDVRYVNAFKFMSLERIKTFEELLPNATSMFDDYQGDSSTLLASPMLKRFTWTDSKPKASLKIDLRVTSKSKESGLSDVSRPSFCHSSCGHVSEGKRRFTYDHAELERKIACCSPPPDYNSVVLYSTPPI

Question: For `CNC(=O)c1cccc2cc(Oc3ccnc4cc(OCC5(N)CC5)c(OC)cc34)ccc12`, which IC50 [1] is on record?
Answer: Its IC50 is 7 nM.

Question: And the IC50 [2]?
Answer: The IC50 was 10 nM.

Question: And the IC50 [3]?
Answer: Its IC50 is 17.5 nM.

Question: What about the IC50 [4] of the same molecule?
Answer: Its IC50 is 25 nM.

Question: And the IC50 [5]?
Answer: The IC50 was 82.5 nM.

Question: For `COc1cc2c(Oc3ccc(Nc4ccc(C(C)(C)C)cc4)cc3)ccnc2cc1OCCNCCO`, which IC50 [6] is on record?
Answer: The IC50 was 69 nM.

Question: What about the IC50 [7] of the same molecule?
Answer: The IC50 was 69 nM.

Question: What about the IC50 [4] of the same molecule?
Answer: The IC50 was 69 nM.

Question: And the IC50 [5]?
Answer: The IC50 was 69 nM.

Question: For `CNC(=O)c1cc(COc2nnc(Nc3ccc(Cl)cc3)c3ccoc23)ccn1` [TELATINIB], which IC50 [2] is on record?
Answer: The IC50 was 4 nM.

Question: Which IC50 [8] does the source give for `NC(=O)c1c(OCc2c(F)cc(Br)cc2F)nsc1NC(=O)NCCCCN1CCCC1` [OSI-632] here?
Answer: The IC50 was 9 nM.

Question: What about the TGI [9] of the same molecule?
Answer: Its TGI is 85%.

Question: With `COc1cc2ncnc(Sc3nnc(C)s3)c2cc1OC` as the molecule, how does the inhibition in vivo at 100 mg/kg [10] read?
Answer: The inhibition in vivo at 100 mg/kg was 63%.

Question: What about the inhibition in vivo at 100 mg/kg [11] of the same molecule?
Answer: The inhibition in vivo at 100 mg/kg was 72%.

Question: What about the inhibition at 10 µM [12] of the same molecule?
Answer: The inhibition at 10 µM was 98%.

Question: And the IC50 [4]?
Answer: The IC50 was 32 nM.

Question: And the “inhibition (INH)” value [13]?
Answer: Its value is 80%.

Question: For `COc1cc2nccc(Oc3ccc(NC(=O)NC4CC4)c(Cl)c3)c2cc1C(N)=O` [LENVATINIB], which IC50 [2] is on record?
Answer: Its IC50 is 5.2 nM.

Question: Which IC50 [6] does the source give for `O=C(Nc1ccc(OC(F)(F)F)cc1)c1sccc1NCc1ccnc2ccccc12` [OSI-930] here?
Answer: Its IC50 is 10 nM.

Question: And the IC50 [14]?
Answer: The IC50 was 41 nM.

Question: And the IC50 [15]?
Answer: Its IC50 is 22 nM.

Question: For `CCN1CCN(Cc2ccc(-c3cc4c(N[C@H](C)c5ccccc5)ncnc4[nH]3)cc2)CC1` [AEE-788], which IC50 [1] is on record?
Answer: The IC50 was 59 nM.

Question: And the IC50 [4]?
Answer: The IC50 was 77 nM.

From ChEMBL document CHEMBL2177017, “Vascular endothelial growth factor (VEGF) receptors: drugs and new inhibitors” (J Med Chem, 2012)
